Values of other authors as cited in publication PMC8342870 (International Journal of Biological Macromolecules, 2021).

Target: SARS-CoV-2 PLpro (Severe acute respiratory syndrome coronavirus 2, UniProt P0DTD1)
Conditions: previous work ref 29

With CN1C[C@H](C(=O)N[C@]2(C)O[C@@]3(O)[C@@H]4CCCN4C(=O)[C@H](Cc4ccccc4)N3C2=O)C=C2c3cccc4[nH]cc(c34)C[C@H]21 [ergotamine] as the molecule, how does the “reported rigid docking score” value read?
The value was -9.2 kcal/mol.
